Where “and” joins values, the source holds several entries; their conditions need not be identical. Equal values may be shown once.
Experiments:
[1] = Drug-drug interaction clinical trial: fenfluramine co-administered with stiripentol, clobazam and valproate; plasma levels of fenfluramine and norfenfluramine; details: healthy volunteers; for Exposure impact: ratio of AUC0-72 for combination treatment to AUC0-72 for fenfluramine alone: single dose, fenfluramine 0.8 mg/kg with stiripentol 3,500 mg, clobazam 20 mg, valproate 25 mg/kg (≤1,500 mg), blood plasma, interim results
Experimental: The effects of co-administration of a three-drug regimen on fenfluramine metabolism and resultant plasma levels of fenfluramine and its metabolite norfenfluramine was assessed in a clinical trial using in healthy volunteers.
A randomized, open-label, single-dose, 3-way cross-over study was designed to examine the effects of co-administering fenfluramine with a three-drug cocktail consisting of stiripentol, clobazam, and valproate. Each patient was treated sequentially with three treatment regimens, each being administered individually, according to six different treatment sequences which were assigned randomly.
Subjects were recruited from an existing pool of volunteers or through direct advertising, Prospects who had participated in a study within three months prior of dosing were excluded from the pool of potential participants. A full medical history for the preceding 12-month period was obtained from each subject's primary care physician and evaluated. Patients were then assessed according to the inclusion and exclusion criteria shown below. Persons chosen as study participants underwent a screening visit prior to participation to reassess and confirm compliance with those criteria.
AUC0-72 values were calculated based on blood plasma levels of fenfluramine and norfenfluramine levels. Exposure impact is expressed as a ratio of AUC0-72 values determined for patients receiving the combination treatment to the AUC0-72 values determined for patients receiving fenfluramine alone.

5-HT2B receptor = 5-HT2B receptor (Homo sapiens, UniProt P41595); details: cited from earlier work
CYP2B6 = target: T1, CYP2B6 (Homo sapiens, UniProt P20813); details: cited from earlier work
T1 sequence (P20813 1-491): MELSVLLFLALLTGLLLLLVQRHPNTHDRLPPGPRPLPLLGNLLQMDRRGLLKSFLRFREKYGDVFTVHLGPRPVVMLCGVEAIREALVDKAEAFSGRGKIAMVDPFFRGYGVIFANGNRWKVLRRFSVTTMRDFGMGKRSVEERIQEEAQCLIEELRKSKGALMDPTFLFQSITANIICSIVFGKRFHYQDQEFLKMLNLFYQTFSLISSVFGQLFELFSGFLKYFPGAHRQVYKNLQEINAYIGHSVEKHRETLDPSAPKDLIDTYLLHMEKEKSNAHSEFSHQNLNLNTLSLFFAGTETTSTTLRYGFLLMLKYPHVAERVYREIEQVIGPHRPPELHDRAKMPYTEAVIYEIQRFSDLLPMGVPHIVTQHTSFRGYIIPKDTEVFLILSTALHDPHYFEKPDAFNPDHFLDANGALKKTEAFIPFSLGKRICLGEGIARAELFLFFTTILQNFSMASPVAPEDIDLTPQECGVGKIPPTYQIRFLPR

CYP2C8 = target: T2, CYP2C8 (Homo sapiens, UniProt P10632); details: cited from earlier work
T2 sequence (P10632 1-490): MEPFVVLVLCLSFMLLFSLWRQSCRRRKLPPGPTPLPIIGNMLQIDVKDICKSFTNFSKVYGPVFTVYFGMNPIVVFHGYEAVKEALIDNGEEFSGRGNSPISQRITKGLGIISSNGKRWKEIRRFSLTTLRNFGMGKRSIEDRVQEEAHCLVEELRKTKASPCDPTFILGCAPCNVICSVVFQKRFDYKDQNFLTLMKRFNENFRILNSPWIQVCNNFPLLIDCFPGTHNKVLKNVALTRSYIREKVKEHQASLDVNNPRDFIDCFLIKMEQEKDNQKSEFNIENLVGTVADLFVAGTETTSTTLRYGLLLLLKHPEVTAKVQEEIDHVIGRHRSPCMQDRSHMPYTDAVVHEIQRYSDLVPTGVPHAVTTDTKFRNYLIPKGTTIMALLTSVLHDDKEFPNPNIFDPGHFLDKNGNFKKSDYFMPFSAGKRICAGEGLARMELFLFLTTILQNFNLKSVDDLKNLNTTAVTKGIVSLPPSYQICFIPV

CYP1A2 = CYP1A2 (Homo sapiens, UniProt P05177); details: cited from earlier work
CYP2D6 = CYP2D6 (Homo sapiens, UniProt P10635); details: cited from earlier work
CYP2C19 = CYP2C19 (Homo sapiens, UniProt P33261); details: cited from earlier work
CYP3A4 [2] = target: CYP3A4 (Homo sapiens, UniProt P08684); details: cited from earlier work
CYP2C9 = CYP2C9 (Homo sapiens, UniProt P11712); details: cited from earlier work
CYP3A4 [3] = details: cited from earlier work

Sequence of CYP3A4 (Homo sapiens, UniProt P08684) (P08684 whole entry): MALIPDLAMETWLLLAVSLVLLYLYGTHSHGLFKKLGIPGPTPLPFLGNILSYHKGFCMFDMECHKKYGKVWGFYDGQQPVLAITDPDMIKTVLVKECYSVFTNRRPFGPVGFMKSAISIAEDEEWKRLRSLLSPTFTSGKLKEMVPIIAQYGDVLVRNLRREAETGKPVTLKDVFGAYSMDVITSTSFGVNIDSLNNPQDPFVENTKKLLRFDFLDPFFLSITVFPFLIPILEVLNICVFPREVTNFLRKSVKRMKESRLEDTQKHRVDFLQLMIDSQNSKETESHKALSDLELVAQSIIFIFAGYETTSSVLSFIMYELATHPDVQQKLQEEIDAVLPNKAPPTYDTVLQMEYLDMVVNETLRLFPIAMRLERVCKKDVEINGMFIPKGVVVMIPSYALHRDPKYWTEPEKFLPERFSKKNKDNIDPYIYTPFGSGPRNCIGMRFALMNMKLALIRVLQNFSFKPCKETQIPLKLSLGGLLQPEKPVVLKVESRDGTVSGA
Sequence of CYP2D6 (P10635 whole entry): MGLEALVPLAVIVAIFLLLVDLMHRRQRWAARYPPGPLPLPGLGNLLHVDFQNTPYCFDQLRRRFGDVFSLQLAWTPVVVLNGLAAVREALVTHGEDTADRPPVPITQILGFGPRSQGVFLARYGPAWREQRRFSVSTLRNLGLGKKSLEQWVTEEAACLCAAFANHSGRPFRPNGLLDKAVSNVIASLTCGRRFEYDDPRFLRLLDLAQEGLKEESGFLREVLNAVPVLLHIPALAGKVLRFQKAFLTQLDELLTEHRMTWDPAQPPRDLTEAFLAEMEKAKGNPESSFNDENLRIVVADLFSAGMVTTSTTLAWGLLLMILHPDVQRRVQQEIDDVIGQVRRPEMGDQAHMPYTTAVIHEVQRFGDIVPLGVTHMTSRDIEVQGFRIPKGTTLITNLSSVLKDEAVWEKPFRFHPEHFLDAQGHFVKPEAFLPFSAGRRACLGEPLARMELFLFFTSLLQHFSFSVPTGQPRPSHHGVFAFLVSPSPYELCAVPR
Sequence of 5-HT2B receptor (P41595 whole entry): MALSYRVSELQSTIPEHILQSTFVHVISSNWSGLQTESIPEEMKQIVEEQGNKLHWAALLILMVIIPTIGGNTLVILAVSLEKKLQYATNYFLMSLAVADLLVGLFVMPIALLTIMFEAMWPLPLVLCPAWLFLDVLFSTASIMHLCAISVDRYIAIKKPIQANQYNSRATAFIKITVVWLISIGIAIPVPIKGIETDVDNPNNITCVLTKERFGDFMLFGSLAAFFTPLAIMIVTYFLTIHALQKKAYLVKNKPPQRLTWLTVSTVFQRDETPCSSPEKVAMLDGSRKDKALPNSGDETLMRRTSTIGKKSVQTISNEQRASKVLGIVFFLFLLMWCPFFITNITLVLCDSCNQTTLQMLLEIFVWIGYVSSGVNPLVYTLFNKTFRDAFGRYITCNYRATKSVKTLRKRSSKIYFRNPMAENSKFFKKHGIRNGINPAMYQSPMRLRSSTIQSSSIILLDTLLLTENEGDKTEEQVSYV
Sequence of CYP1A2 (P05177 whole entry): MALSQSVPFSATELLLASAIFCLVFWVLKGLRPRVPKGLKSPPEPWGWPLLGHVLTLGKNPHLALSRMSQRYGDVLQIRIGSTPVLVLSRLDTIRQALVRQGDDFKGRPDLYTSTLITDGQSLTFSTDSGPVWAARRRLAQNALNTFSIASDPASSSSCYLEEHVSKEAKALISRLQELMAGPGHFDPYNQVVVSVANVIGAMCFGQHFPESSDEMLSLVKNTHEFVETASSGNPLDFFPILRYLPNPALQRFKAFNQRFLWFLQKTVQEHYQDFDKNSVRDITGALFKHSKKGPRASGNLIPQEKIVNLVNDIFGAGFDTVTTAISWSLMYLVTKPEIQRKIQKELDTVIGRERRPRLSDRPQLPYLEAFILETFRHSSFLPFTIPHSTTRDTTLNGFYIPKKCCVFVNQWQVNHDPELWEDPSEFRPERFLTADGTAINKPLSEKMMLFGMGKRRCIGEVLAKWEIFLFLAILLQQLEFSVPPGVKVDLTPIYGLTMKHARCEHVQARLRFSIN
Sequence of CYP2C9 (P11712 whole entry): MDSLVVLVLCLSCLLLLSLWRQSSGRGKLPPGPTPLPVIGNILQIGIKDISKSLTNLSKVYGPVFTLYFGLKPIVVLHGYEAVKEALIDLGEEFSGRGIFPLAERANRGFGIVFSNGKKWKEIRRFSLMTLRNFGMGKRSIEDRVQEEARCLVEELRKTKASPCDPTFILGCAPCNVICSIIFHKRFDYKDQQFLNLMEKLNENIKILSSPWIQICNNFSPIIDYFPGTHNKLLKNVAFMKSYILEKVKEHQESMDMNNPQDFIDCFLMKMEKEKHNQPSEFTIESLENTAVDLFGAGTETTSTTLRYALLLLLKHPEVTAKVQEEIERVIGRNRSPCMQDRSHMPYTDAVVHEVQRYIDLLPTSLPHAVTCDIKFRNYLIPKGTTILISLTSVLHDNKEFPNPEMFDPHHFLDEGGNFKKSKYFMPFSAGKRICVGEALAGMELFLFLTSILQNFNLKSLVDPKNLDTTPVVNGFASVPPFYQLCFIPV
Sequence of CYP2C19 (P33261 whole entry): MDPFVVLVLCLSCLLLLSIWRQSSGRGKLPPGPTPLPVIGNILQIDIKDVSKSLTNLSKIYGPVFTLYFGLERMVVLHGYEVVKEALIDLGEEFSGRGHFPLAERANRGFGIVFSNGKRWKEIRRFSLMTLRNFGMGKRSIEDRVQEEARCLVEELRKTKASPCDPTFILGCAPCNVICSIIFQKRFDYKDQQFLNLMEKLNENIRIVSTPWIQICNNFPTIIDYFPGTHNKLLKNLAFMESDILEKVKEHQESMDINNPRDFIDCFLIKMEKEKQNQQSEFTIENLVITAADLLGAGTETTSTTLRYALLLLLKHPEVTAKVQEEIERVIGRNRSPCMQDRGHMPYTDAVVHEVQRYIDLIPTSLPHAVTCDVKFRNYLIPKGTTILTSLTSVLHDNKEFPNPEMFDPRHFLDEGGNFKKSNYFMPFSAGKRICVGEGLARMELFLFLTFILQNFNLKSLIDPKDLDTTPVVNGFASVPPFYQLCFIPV

Compound	Exposure impact: ratio of AUC0-72 for combination treatment to AUC0-72 for fenfluramine alone [1]	Agonistic effect on 5-HT2B receptor (5-HT2B receptor)	Inhibition of CYP1A2 (CYP1A2)	Inhibition of CYP2D6 (CYP2D6)	Inhibition of CYP2C19 (CYP2C19)	Inhibition of CYP3A4 (CYP3A4 [2])	Inhibition of CYP2C9 (CYP2C9)	other results
CCNC(C)Cc1cccc(C(F)(F)F)c1 (racemic) [fenfluramine, 3-trifluoromethyl-N-ethylamphetamine]	1.66 and 1.67	does not have significant agonistic effects	–	–	–	–	–	–
C=C(C)[C@@H]1CCC(C)=C[C@H]1c1c(O)cc(CCCCC)cc1O [cannabidiol]	–	–	potent inhibitor of CYP1A2 (time-dependent effect)	inhibitory effects	inhibitory effects	potent inhibitor	inhibitory effects	Inhibition of CYP2B6 (CYP2B6): potent inhibitor; Inhibition of CYP2C8 (CYP2C8): inhibitory effects
CN1C(=O)CC(=O)N(c2ccccc2)c2cc(Cl)ccc21 [clobazam]	–	–	–	strongly inhibits	–	–	–	Induction of CYP3A4 (CYP3A4 [3]): weak inducer
CC(N)Cc1cccc(C(F)(F)F)c1 (stereo not drawn) [norfenfluramine]	0.59	particularly potent 5-HT2B agonist	–	–	–	–	–	Reduction of patient exposure to norfenfluramine ([1]; fenfluramine co-administered with stiripentol, clobazam and valproate): ~30%
CC(C)(C)C(O)/C=C/c1ccc2c(c1)OCO2 (stereo not drawn) [stiripentol]	–	–	strongly inhibits	–	less strongly	strongly inhibits	less strongly	–
